Measured values as given in patent EP1624852B1, “SUN TANNING PRODUCTS AND PRODUCTS FOR TREATMENT OF THE SKIN BEFORE AND AFTER EXPOSURE TO THE SUN” (Gecomwert Anstalt, priority 2003, dated 2004).

Test system: skin of the forearm
Test: in vivo tanning test: skin colour read with Minolta CR 200 Chromameter after UVA irradiation
Set-up: species or system volunteers
Details: for Percentage increase WHITE (-L*) / Percentage increase RED (a*) / Percentage increase YELLOW (B*): 15 volunteers, forearm skin, UVA 10 minutes every 24 hours, irradiated untreated skin = 100%
Procedure: In order to evaluate the effectiveness of the group of components in question in extending the formation of a tan, an in vivo test with a cream containing tyrosine conjugated with 0.750 oleic acid was carried out in vivo on 15 volunteers over a period of 14 days. Three adjacent zones on the skin of the forearm of each volunteer were identified. The first irradiated zone was treated with an emulsion containing only a sun filter (placebo), the second with an emulsion containing both the filter and the lipophilic tyrosine, the third was not treated with any emulsion (control) . The three zones of the skin were irradiated simultaneously with UVA light for 10 minutes every 24 hours (1 hour after application of the creams) for two weeks. The skin colour was read instrumentally using the Minolta® CR 200 Chromameter instrument, a device for measuring the colour of surfaces which is capable of analysing the strength of the colouration using a Xenon lamp, subdividing it into three different parameters (corresponding to the white component (-L*), the red component (a*) and the yellow component (B*)). Each reading was made 24 hours after each exposure to UVA light, in order to minimise instantaneous pigmentation phenomena. The average percentage increase in the colour of the skin treated with lipophilic tyrosine in comparison with the portion of the skin treated with placebo was calculated, assigning a value of 100% to the strength of the colour of the irradiated skin in the absence of emulsion.
Values of the average percentage increase in the white, red and yellow parameters found are shown in the following table: Percentage increase in the 3 parameters

tyrosine conjugated with oleic acid
Percentage increase WHITE (-L*) (1st day, emulsion with filter and lipophilic tyrosine vs placebo (filter only), reading 24 hours after exposure): -70.20% | Percentage increase RED (a*) (1st day, vs placebo): 66.60% | Percentage increase RED (a*) (6th day, vs placebo): 73.16% | Percentage increase WHITE (-L*) (6th day, vs placebo): -79.00% | Percentage increase YELLOW (B*) (6th day, vs placebo): 62.26% | Percentage increase RED (a*) (Mean after 14 days, vs placebo): 73.50% | Percentage increase WHITE (-L*) (Mean after 14 days, vs placebo): -69.00% | Percentage increase YELLOW (B*) (Mean after 14 days, vs placebo): 65.00% | decrease in white with simultaneous increase in the red and yellow components over time (treated skin in comparison with skin treated with placebo): significantly greater
